Source: publication PMC4621507, “Characterization of 2,4-Diamino-6-oxo-1,6-dihydropyrimidin-5-yl Ureido Based Inhibitors of Trypanosoma brucei FolD and Testing for Antiparasitic Activity” (Journal of Medicinal Chemistry, 2015)
Where “and” joins values, the source holds several entries; their conditions need not be identical. Equal entries are not always repeated.

Columns and labels:
TbFolD = test: FolD dehydrogenase enzyme inhibition assay; type: biochemical, Trypanosoma brucei; settings: for FolD inhibition IC50 / FolD inhibition Ki: recombinant TbFolD, dehydrogenase activity; for FolD inhibition IC50: 35 μM mTHF, 1 mM NADP+, 27 °C, pH 7.3; for FolD inhibition Ki: data fitted to a competitive model; for increase of the inhibitory potency compared to that of compound 2: TbFolD, from Ki
Description: The dehydrogenase activity of FolD was measured spectrophotometrically, using a Beckman DU-640 spectrophotometer, following the formation of 5,10-CH=THF from 5,10-CH2-THF. 5,10-CH2-THF dehydrogenase assays were carried out in a 0.5 mL volume at 27 °C and contained 25 mM MOPS, pH 7.3, 30 mM 2-mercaptoethanol, 35 μM mTHF, and 1 mM NADP^+. The Km values of substrate and cofactor having been previously elucidated as approximately 35 and 70 μM. The reaction was initiated by the addition of NADP^+ and incubated for 5 min then stopped by the addition of an equal volume of 1 M HCl and the 5,10-CH=THF produced quantified at 350 nm, using an extinction coefficient of 24.9 mM^–1 cm^–1. The enzyme activity was expressed as μ moles 5,10-CH=THF produced per minute. Enzyme inhibition was measured using the dehydrogenase assay, with stocks of compounds dissolved in DMSO (10 mM). The concentration of compound in the first test was 0–50–100 μM. Data from inhibition assays were fitted to a competitive model by linear regression using Origin (OriginLab Corporation). […]
with 50 mM bicine, 250 mM NaCl, 0.5 mM DTT, 10 % glycerol pH 8.0. The typical yield of protein was approximately 7 mg/L of cell culture. The addition of 10% glycerol in all buffers was required to prevent loss of activity when the samples were flashyfrozen.
The dehydrogenase activity of FolD was measured spectrophotometrically, using a Beckman DUy 640 spectrophotometer, following either the formation of 5,10yCH=THF from 5,10yCH2yTHF (DH activity). 5,10yCH2yTHF dehydrogenase assays were carried out in a 0.5 mL volume at 27 °C and contained 25 mM MOPS, pH 7.3, 30 mM 2ymercaptoethanol 35 µM mTHF, 1 mM NADP+. The reaction was initiated by addition of NADP+ and incubated for 5 minutes then stopped by the addition of an equal volume of 1 M HCl and the 5,10yCH=THF produced quantified at 350 nm, using a extinction coefficient of 24.9 mM−1 cm−1. DH activity was expressed as µ moles 5,10y CH=THF produced per minute. Enzyme inhibition was measured using the dehydrogenase assay, with stocks of compounds dissolved in DMSO (10 mM). The concentration of compound in the first test was 0y50y100 µM. Data from inhibition assays were fitted to competitive model by linear […]
The bloodstreamyform T. brucei brucei strain 427 was grown in HMIy9 medium – 17.66 mg/mL IMDM (Gibco), 3.020 mg/mL sodium bicarbonate (SigmayAldrich), 0.136 mg/mL hypoxanthine (SigmayAldrich), 0.039 mg/mL thymidine (SigmayAldrich) and 0.028 mg/mL bathocuproine sulfonic acid (SigmayAldrich) y supplemented with 10% heatyinactivated fetal bovine serum (FBS) (BioWhittaker), 1.5 mM Lycysteine hydrochloride monohydrate (Merck), 0.2 mM βy mercaptoethanol (SigmayAldrich), 100 U/mL penicillin and 100 U/mL streptomycin (BioWhittaker) at 37 °C under a humidified 5% CO2 atmosphere. Cultures were grown in T25 or T75 vented cap culture flasks (Sarstedt) and subycultured every 2y3 days by 100 to 1000yfold dilution, respectively.
Parasites were counted directly using a Neubauer chamber (Marienfeld) and diluted appropriately in […]
In vitro growth inhibition assays

[1] = Solubility in organic solvents (crystallization trials); type: physicochemical; settings: room temperature, with the exception of DMSO
Description: We therefore tried to grow crystals from DMSO (in different conditions) and from mixtures of DMSO/CH3CN. Eventually, crystallization by slow evaporation (16 days) of a solution of 3 in reagent-grade DMSO (Sigma-Aldrich) at room temperature produced small plates suitable for the determination of the molecular connectivity. After testing several samples, a specimen (0.25 × 0.20 × 0.05 mm^3) grown at the liquor/air interface was selected for the crystallographic analysis. The specimen manifested a significant pleochroism (colorless to violet) under polarized light. It was mounted on the top of a glass capillary fiber in dense perfluorinated oil. The X-ray data collection was performed at room temperature on a 3-circle Bruker SMART APEX goniometer equipped with a CCD APEX-II detector, using graphite-monochromated Mo Kα radiation (λ = 0.71073 Å). A total of 26180 reflections (8144 unique) were recorded up to (sin ϑ/λ)MAX = 0.5017 Å^–1. A high exposure time (120 s/frame) was employed due to the small dimensions of the sample and its very low scattering power.

human FolD = target: human FolD; parameters: method as in PMID 22108435, PMID 23050773; settings: competitive inhibitor; cited from earlier work
L. major FolD = target: L. major FolD; parameters: method as in PMID 22108435, PMID 23050773; settings: competitive inhibitor; cited from earlier work
[2] = target: Pseudomonas aeruginosa FolD; parameters: method as in PMID 22108435, PMID 23050773; settings: competitive inhibitor; cited from earlier work
[3] = system: THP1 differentiated macrophages; test: Cytotoxicity, colorimetric MTT assay; type: cell-based; settings: human THP1 differentiated macrophages, 72 h, read-out: THP1 in vitro growth inhibition IC50
Description: The cytotoxicity of the compounds under study was assessed by a colorimetric MTT assay.[26],[27] THP1 differentiated macrophages were seeded at a density of 10^5 cells/well in 96-well plates and allowed to adhere overnight. Cells were incubated with the compound concentration range for 72 h at 37 °C. At the end of the incubation period, 200 μL of 0.5 mg/mL MTT reagent (thiazolyl blue tetrazolium bromide, Sigma) solution was added to each well. The plates were further incubated for 4 h at 37 °C in the dark. The culture medium was subsequently discarded, and 200 μL of isopropanol was added to dissolve the dark-blue formazan crystals. Cell viability was quantified spectrophotometrically by measuring the absorbance of the formazan product at wavelength 570 nm and the background at 660 nm with a microplate reader (Synergy 2, Biotek, USA). The data are expressed as the percentages of viable cells compared to the survival of a control group (untreated cells). […]
additional 4 h and then the fluorescence read in a microplate reader (Sinergy 2, BioTek) using an […]
calculated by linear regression.
The cytotoxicity of the compounds under study was assessed by a colorimetric MTT assay. […]
added to dissolve the darkyblue formazan crystals. Cell viability was quantified
spectrophotometrically by measuring the absorbance of the formazan product at the wavelength of […]

[4] = target: Trypanosoma brucei N5,N10-methylenetetrahydrofolate dehydrogenase/cyclohydrolase (FolD) (Trypanosoma brucei (Lister 927 strain)); test: SEC; size exclusion chromatography (gel filtration) of recombinant TbFolD in solution; conditions not given in the main text

Row | Molecule | FolD inhibition IC50 (TbFolD) | FolD inhibition Ki (TbFolD) | other results
1 | Nc1nc(N)c(NC(=O)Nc2ccc(C(=O)N[C@@H](CCC(=O)O)C(=O)O)cc2)c(=O)[nH]1 [Compound 2, (S)-2-(4-(3-(2,4-Diamino-6-oxo-1,6-dihydropyrimidin-5-yl)ureido)benzamido)pentanedioic Acid] | 2200 nM and 2200 ± 500 nM | 1100 nM and 1100 ± 800 nM | 
2 | CCOC(=O)c1ccc(NC(=O)Nc2c(N)nc(N)[nH]c2=O)cc1 [Compound 3, Ethyl 4-(3-(2,4-diamino-6-oxo-1,6-dihydropyrimidin-5-yl)ureido)benzoate] |  |  | solubility in most organic solvents [1]: poorly soluble
3 | C[C@H](NC(=O)c1ccc(NC(=O)Nc2c(N)nc(N)[nH]c2=O)cc1)C(=O)O [Compound 17, (S)-2-(4-(3-(2,4-Diamino-6-hydroxypyrimidin-5-yl)ureido)benzamido)propanoic Acid] | 6300 ± 800 nM | 3200 ± 300 nM | 
4 | Nc1nc(N)c(NC(=O)Nc2ccc(C(=O)N[C@@H](Cc3ccccc3)C(=O)O)cc2)c(=O)[nH]1 [Compound 18, (S)-2-(4-(3-(2,4-Diamino-6-hydroxypyrimidin-5-yl)ureido)benzamido)-3-phenylpropanoic Acid] | 1100 ± 250 nM | 540 nM and 540 ± 80 nM | increase of the inhibitory potency compared to that of compound 2 (TbFolD): 2 fold
5 | Nc1nc(N)c(NC(=O)Nc2ccc(C(=O)N[C@@H](Cc3ccc(O)cc3)C(=O)O)cc2)c(=O)[nH]1 [Compound 19, (S)-2-(4-(3-(2,4-Diamino-6-hydroxypyrimidin-5-yl)ureido)benzamido)-3-(4-hydroxyphenyl)propanoic Acid] | 9300 ± 900 nM | 7300 ± 700 nM | 
6 | Nc1nc(N)c(NC(=O)Nc2ccc(C(=O)NCCCC(=O)O)cc2)c(=O)[nH]1 [Compound 20, 4-(4-(3-(2,4-Diamino-6-hydroxypyrimidin-5-yl)ureido)benzamido)butanoic Acid] | 213000 ± 18000 nM | 168000 ± 8500 nM | 
7 | Nc1nc2c(c(=O)[nH]1)N1C(=O)N(c3ccc(C(=O)NC(CCC(=O)O)C(=O)O)cc3)CC1CN2 (stereo not shown) [Compound 21, reference compound] | 20000 ± 1200 nM | 8500 nM and 8500 ± 500 nM | Ki human FolD (human FolD): 29 nM; Ki L. major FolD (L. major FolD): 105 nM; Ki Pseudomonas aeruginosa FolD [2]: 30 nM
8 | (S)-2-(4-(3-(2,4-diamino-6-hydroxypyrimidin-5-yl)ureido)benzamido)hexanedioic Acid [Compound 16] | 1000 ± 300 nM | 480 nM and 480 ± 700 nM | IC50 [3]: 90000 ± 16000 nM; increase of the inhibitory potency compared to that of compound 2 (TbFolD): 2 fold
9 | Trypanosoma brucei N5,N10-methylenetetrahydrofolate dehydrogenase/cyclohydrolase (FolD) (enzyme) |  |  | stoichiometry N [4]: 2
